Measurements taken from paper PMC9820316, “Novel Arylpiperazine Derivatives of Salicylamide with α1-Adrenolytic Properties Showed Antiarrhythmic and Hypotensive Properties in Rats” (International Journal of Molecular Sciences, 2022).
Marks after values point to notes of the source that are not given here.

Assays:
[1] = biological target: α1-adrenergic receptors; assay: α1-adrenoceptor radioligand binding assay ([3H]-prazosin, rat cortex); settings: rat cortex tissue, mean ± SEM
Procedure, shortened: (§1)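 Rat cerebral cortex membranes in 50 mM Tris-HCl pH 7.6, with 7–8 compound concentrations in duplicate. Nonspecific binding defined by 10 μM phentolamine for [3H]-prazosin (α1) or 10 μM clonidine for [3H]-clonidine (α2). Filtration and scintillation counting; Ki calculated.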

[2] = biological target: α2-adrenergic receptors; assay: α2-adrenoceptor radioligand binding assay ([3H]-clonidine, rat cortex); settings: rat cortex tissue, mean ± SEM, n.a. = did not bind at 10^−5 M
Procedure, shortened: as §1

[3] = system: adrenaline-induced arrhythmia model in rats; assay: Prophylactic antiarrhythmic activity in adrenaline-induced arrhythmia; assay type: in vivo, rat; settings: for Blocks / Bradycardia / Extrasystoles / Mortality: number of animals with event; for ED50: prophylactic, iv 15 min before adrenaline 20 μg/kg, confidence limits in brackets (Litchfield and Wilcoxon)
[4] = system: calcium chloride-induced arrhythmia model in rats; assay: Prophylactic antiarrhythmic activity in calcium chloride-induced arrhythmia; assay type: in vivo, rat; settings: 5 mg/kg iv 15 min before calcium chloride 140 mg/kg; number of animals with event
[5] = system: normal ECG in rats; assay: Effect on a normal electrocardiogram in rats; assay type: in vivo, rat; settings: for HR—heart rate / PQ interval / QRS complex / QTc (Bazzett's formula): mean ± SD; for PQ interval / QRS complex / QTc (Bazzett's formula): in ms (unit assumed)
Procedure: The procedure was performed to exclude the negative effects of the tested compounds on the normal ECG, according to the method described earlier. […] Firstly, animals were anesthetized with thiopental (75 mg/kg ip). […] The influence on PQ, QTc interval, QRS complex, and heart rate was evaluated. The Bazzett’s formula: QTc = QT/√RR was used to calculate QTc. All the studied compounds were administered at a dose of 5 mg/kg.

[6] = system: normotensive rats; assay: Influence on blood pressure in the normotensive rats; assay type: in vivo, rat; settings: for DBP—diastolic blood pressure / SBP—systolic blood pressure: mean ± SD
Procedure, shortened: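 Anaesthetised (thiopental 75 mg/kg ip) normotensive Wistar rats with right carotid artery cannulated for direct pressure recording. Compounds given iv after 15 min stabilisation. Systolic and diastolic blood pressure were monitored.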

[7] = system: pressor response to methoxamine in rats; assay: Influence on blood vasopressor response to methoxamine in rats; assay type: in vivo, rat; settings: methoxamine 150 μg/kg before and 5 min after compound
Procedure, shortened: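 Anaesthetised (thiopental 75 mg/kg ip) normotensive Wistar rats, carotid artery cannulated. Pressor response to methoxamine (150 µg/kg, iv) recorded before and 5 min after test compound, given at its lowest hypotensive dose, after 15-min stabilisation.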

[8] = system: adrenaline-induced arrhythmia model in rats; assay: Therapeutic antiarrhythmic activity in adrenaline-induced arrhythmia; settings: number of animals with event
Procedure: The experiments were carried out according to the method described by Szekeres and Papp [71]. The heart rhythm disturbances, such as extrasystoles, conduction blocks, and bradycardia, were induced by iv injection of adrenaline (20 µg/kg) to anesthetized rats (thiopental, 75 mg/kg, ip). […] The Aspel ASCARD apparatus (standard II lead, with a tape of speed 50 mm/s and voltage calibration of 1 mV = 1 cm) was used for the ECG measurements. The ECG was recorded during the first 2 min and in the 5th, 10th, and 15th min after the adrenaline injection (Figure 3B). The lack or decreased amount of extrasystoles, atrioventricular blocks, and bradycardia in the ECG recordings compared to the control group was the criterion of antiarrhythmic activity [72].
Automated ECG waveform analysis was evaluated as described earlier [55], using Eleven Maze software version 0.1 from Eleven Products Sp. z o.o. […] The software, under expert supervision, recognized and classified the heart rhythm irregularities. It also calculated PQ, QRS, QTc, and rate parameters.

[9] = 0.05 mg/kg iv 15 min before adrenaline 20 μg/kg
[10] = 0.1 mg/kg iv 15 min before adrenaline 20 μg/kg
[11] = 0.25 mg/kg iv 15 min before adrenaline 20 μg/kg
[12] = 5 mg/kg iv, 0 min (prior to administration)
[13] = 0.5 mg/kg iv, 0 min (before administration)
[14] = 1.0 mg/kg iv, 0 min (before administration)
[15] = 1 mg/kg iv immediately after adrenaline 20 µg/kg
[16] = 0.5 mg/kg iv 15 min before adrenaline 20 μg/kg
[17] = 1 mg/kg iv 15 min before adrenaline 20 μg/kg
[18] = 2.5 mg/kg iv, 0 min (before administration)
[19] = 5 mg/kg iv immediately after adrenaline 20 µg/kg

## Cl.NC(=O)c1ccccc1OCCCCN1CCN(c2cccc(Cl)c2)CC1 [JJGW01, 2-{4-[4-(3-chlorophenyl)piperazin-1-ylo]butoxy}benzamide hydrochloride]
[1]
  Adrenergic Receptors—pKi α1: 8.40 ± 0.01
[2]
  Adrenergic Receptors—pKi α2: 6.13 ± 0.02
[3]; [9]
  Blocks: 6/6
  Bradycardia: 6/6
  Extrasystoles: 6/6
  Mortality: 4/6
[3]; [10]
  Blocks: 5/6
  Bradycardia: 3/6
  Extrasystoles: 5/6
  Mortality: 0/6
[3]; [11]
  Blocks: 4/6
  Bradycardia: 2/6
  Extrasystoles: 4/6
  Mortality: 1/6
[3]
  ED50: 0.10 (0.03–0.36) mg/kg
[4]
  Blocks: 6/6
  Bradycardia: 6/6
  Extrasystoles: 6/6
  Fibrillations: 6/6
  Mortality: 6/6
[5]; 5 mg/kg iv
  effect on the heart rate during the ECG recording: did not affect the heart rate
[5]; [12]
  HR—heart rate: 311.8 ± 11.6
  PQ interval: 42.3 ± 3.4
  QRS complex: 49.3 ± 7.8
  QTc (Bazzett's formula): 196.0 ± 14.2
[5]; 5 mg/kg iv, 5 min
  HR—heart rate: 318.0 ± 28.5
  PQ interval: 42.3 ± 2.0
  QRS complex: 46.7 ± 5.6
  QTc (Bazzett's formula): 193.7 ± 14.9
[5]; 5 mg/kg iv, 10 min
  HR—heart rate: 324.6 ± 23.1
  PQ interval: 41.3 ± 2.4
  QRS complex: 48.0 ± 4.2
  QTc (Bazzett's formula): 186.6 ± 9.0
[5]; 5 mg/kg iv, 15 min
  HR—heart rate: 324.0 ± 23.1
  PQ interval: 41.0 ± 3.3
  QRS complex: 50.3 ± 4.6
  QTc (Bazzett's formula): 190.6 ± 14.5
[6]; [13]
  DBP—diastolic blood pressure: 95.3 ± 12.6 mmHg
  SBP—systolic blood pressure: 130.7 ± 14.9 mmHg
[6]; 0.5 mg/kg iv, 5 min
  DBP—diastolic blood pressure: 88.5 ± 14.3 mmHg
  SBP—systolic blood pressure: 119.0 ± 13.4 mmHg
[6]; 0.5 mg/kg iv, 10 min
  DBP—diastolic blood pressure: 85.0 ± 13.6 mmHg
  SBP—systolic blood pressure: 115.7 ± 13.0 mmHg
[6]; 0.5 mg/kg iv, 20 min
  DBP—diastolic blood pressure: 84.8 ± 8.5 mmHg
  SBP—systolic blood pressure: 114.7 ± 8.8 mmHg
[6]; 0.5 mg/kg iv, 30 min
  DBP—diastolic blood pressure: 84.3 ± 6.9 mmHg
  SBP—systolic blood pressure: 114.5 ± 10.2 mmHg
[6]; 0.5 mg/kg iv, 40 min
  DBP—diastolic blood pressure: 86.0 ± 10.3 mmHg
  SBP—systolic blood pressure: 115.2 ± 12.6 mmHg
[6]; 0.5 mg/kg iv, 50 min
  DBP—diastolic blood pressure: 88.3 ± 15.3 mmHg
  SBP—systolic blood pressure: 116.8 ± 17.3 mmHg
[6]; 0.5 mg/kg iv, 60 min
  DBP—diastolic blood pressure: 86.8 ± 15.5 mmHg
  SBP—systolic blood pressure: 113.8 ± 16.1 mmHg
[6]; [14]
  DBP—diastolic blood pressure: 87.7 ± 11.2 mmHg
  SBP—systolic blood pressure: 112.5 ± 11.6 mmHg
[6]; 1 mg/kg iv, 40th min after administration
  decrease of the diastolic blood pressure: 16%
[6]; 1 mg/kg iv, 60th min after administration
  decrease of the diastolic blood pressure: 17%
[6]; 1.0 mg/kg iv, 5 min
  DBP—diastolic blood pressure: 80.2 ± 10.8 mmHg
  SBP—systolic blood pressure: 102.5 ± 9.5 ^d mmHg
[6]; 1.0 mg/kg iv, 10 min
  DBP—diastolic blood pressure: 79.0 ± 11.9 mmHg
  SBP—systolic blood pressure: 100.3 ± 10.4 ^d mmHg
[6]; 1.0 mg/kg iv, 20 min
  DBP—diastolic blood pressure: 77.5 ± 12.1 mmHg
  SBP—systolic blood pressure: 99.7 ± 11.3 ^c mmHg
[6]; 1.0 mg/kg iv, 30 min
  DBP—diastolic blood pressure: 75.7 ± 10.6 mmHg
  SBP—systolic blood pressure: 98.2 ± 10.4 ^c mmHg
[6]; 1.0 mg/kg iv, 40 min
  DBP—diastolic blood pressure: 73.8 ± 14.0 ^a mmHg
  SBP—systolic blood pressure: 95.7 ± 13.3 ^c mmHg
[6]; 1.0 mg/kg iv, 50 min
  DBP—diastolic blood pressure: 72.7 ± 11.6 mmHg
  SBP—systolic blood pressure: 95.5 ± 11.2 ^d mmHg
[6]; 1.0 mg/kg iv, 60 min
  DBP—diastolic blood pressure: 73.2 ± 11.3 ^a mmHg
  SBP—systolic blood pressure: 96.5 ± 10.6 ^c mmHg
[6]; 1 mg/kg iv, between the 5th and 60th min after the injection
  decrease of the systolic blood pressure: 9–15%
[7]; 1 mg/kg iv
  attenuation of the methoxamine pressor response: 81%
[8]; [15]
  Blocks: 3/5
  Bradycardia: 2/5
  Mortality: 0/5

## Cl.NC(=O)c1ccccc1OCCCCCN1CCN(c2cccc(Cl)c2)CC1 [JJGW02, 2-{5-[4-(3-chlorophenyl)piperazin-1-ylo]pentoxy}benzamide hydrochloride]
[1]
  Adrenergic Receptors—pKi α1: 8.33 ± 0.02
[2]
  Adrenergic Receptors—pKi α2: 6.20 ± 0.02
[3]; [11]
  Blocks: 5/6
  Bradycardia: 5/6
  Extrasystoles: 5/6
  Mortality: 3/6
[3]; [16]
  Blocks: 6/6
  Bradycardia: 5/6
  Extrasystoles: 5/6
  Mortality: 0/6
[3]; [17]
  Blocks: 5/6
  Bradycardia: 4/6
  Extrasystoles: 5/6
  Mortality: 1/6
[3]
  ED50: 0.45 (0.11–1.77) mg/kg
[4]
  Blocks: 5/6
  Bradycardia: 6/6
  Extrasystoles: 5/6
  Fibrillations: 4/6
  Mortality: 6/6
[5]; 5 mg/kg iv vs ED50
  dose affecting the heart rate relative to the ED50 value in the adrenaline-induced arrhythmia model: 11 fold
[5]; [12]
  HR—heart rate: 311.1 ± 24.4
  PQ interval: 42.6 ± 2.0
  QRS complex: 36.0 ± 1.1
  QTc (Bazzett's formula): 183.3 ± 7.1
[5]; 5 mg/kg iv, 5th min after the injection
  decrease of the heart rate: 10%
[5]; 5 mg/kg iv, 10th min after the injection
  decrease of the heart rate: 15%
[5]; 5 mg/kg iv, 15th min after the injection
  decrease of the heart rate: 16%
[5]; 5 mg/kg iv, 5 min
  HR—heart rate: 278.7 ± 37.0
  PQ interval: 41.7 ± 1.8
  QRS complex: 35.2 ± 1.2
  QTc (Bazzett's formula): 175.4 ± 14.0
[5]; 5 mg/kg iv, 10 min
  HR—heart rate: 265.0 ± 30.1
  PQ interval: 42.2 ± 1.6
  QRS complex: 36.1 ± 1.8
  QTc (Bazzett's formula): 173.2 ± 15.7
[5]; 5 mg/kg iv, 15 min
  HR—heart rate: 262.0 ± 37.3
  PQ interval: 44.8 ± 5.9
  QRS complex: 35.2 ± 0.7
  QTc (Bazzett's formula): 175.1 ± 16.0
[6]; [14]
  DBP—diastolic blood pressure: 87.7 ± 14.9 mmHg
  SBP—systolic blood pressure: 118.0 ± 10.5 mmHg
[6]; 1.0 mg/kg iv, 5 min
  DBP—diastolic blood pressure: 82.7 ± 16.0 mmHg
  SBP—systolic blood pressure: 113.7 ± 8.7 mmHg
[6]; 1.0 mg/kg iv, 10 min
  DBP—diastolic blood pressure: 83.3 ± 10.3 mmHg
  SBP—systolic blood pressure: 111.2 ± 6.4 mmHg
[6]; 1.0 mg/kg iv, 20 min
  DBP—diastolic blood pressure: 80.0 ± 14.1 mmHg
  SBP—systolic blood pressure: 109.7 ± 9.1 mmHg
[6]; 1.0 mg/kg iv, 30 min
  DBP—diastolic blood pressure: 73.7 ± 10.6 mmHg
  SBP—systolic blood pressure: 105.7 ± 7.5 mmHg
[6]; 1.0 mg/kg iv, 40 min
  DBP—diastolic blood pressure: 75.0 ± 13.2 mmHg
  SBP—systolic blood pressure: 107.7 ± 11.5 mmHg
[6]; 1.0 mg/kg iv, 50 min
  DBP—diastolic blood pressure: 73.7 ± 13.9 mmHg
  SBP—systolic blood pressure: 108.7 ± 12.9 mmHg
[6]; 1.0 mg/kg iv, 60 min
  DBP—diastolic blood pressure: 76.7 ± 19.2 mmHg
  SBP—systolic blood pressure: 111.0 ± 18.0 mmHg
[6]; [18]
  DBP—diastolic blood pressure: 84.8 ± 12.1 mmHg
  SBP—systolic blood pressure: 114.3 ± 15.7 mmHg
[6]; 2.5 mg/kg iv, 5 min
  DBP—diastolic blood pressure: 72.0 ± 9.4 ^c mmHg
  SBP—systolic blood pressure: 103.2 ± 13.0 ^c mmHg
[6]; 2.5 mg/kg iv, 10 min
  DBP—diastolic blood pressure: 72.8 ± 11.6 ^b mmHg
  SBP—systolic blood pressure: 104.2 ± 13.2 ^b mmHg
[6]; 2.5 mg/kg iv, 20 min
  DBP—diastolic blood pressure: 73.0 ± 9.6 ^b mmHg
  SBP—systolic blood pressure: 102.8 ± 13.4 ^b mmHg
[6]; 2.5 mg/kg iv, 30 min
  DBP—diastolic blood pressure: 72.3 ± 8.1 ^a mmHg
  SBP—systolic blood pressure: 103.7 ± 10.8 ^a mmHg
[6]; 2.5 mg/kg iv, 40 min
  DBP—diastolic blood pressure: 73.8 ± 9.4 ^a mmHg
  SBP—systolic blood pressure: 106.5 ± 10.6 mmHg
[6]; 2.5 mg/kg iv, 50 min
  DBP—diastolic blood pressure: 73.7 ± 8.7 mmHg
  SBP—systolic blood pressure: 103.2 ± 9.4 ^b mmHg
[6]; 2.5 mg/kg iv, 60 min
  DBP—diastolic blood pressure: 73.7 ± 7.9 ^a mmHg
  SBP—systolic blood pressure: 105.2 ± 9.7 ^a mmHg
[6]; 2.5 mg/kg iv, between the 5th and 30th min and between the 50th and 60th min
  decrease of the systolic blood pressure: 8–10%
[6]; 2.5 mg/kg iv, between the 5th to 40th min and in the 60th min
  decrease of the diastolic blood pressure: 13–15%
[7]; 2.5 mg/kg iv
  attenuation of the methoxamine pressor response: 100%
[8]; [19]
  Blocks: 1/6
  Bradycardia: 2/6
  Mortality: 1/6
